# Data reported in patent US20250263424A1, “KRAS INHIBITORS” (Bristol-Myers Squibb Company, priority 2022, published 2025).
# Target: Recombinant GMPPNP-loaded KRAS G12C (KRAS-G12C(ON), active form) (Homo sapiens, UniProt P01116, G12C)
# Experiment: KRAS G12C RAF Disruption Assay (HTRF)
# Format: biochemical
# Conditions: GMPPNP-loaded KRAS G12C 5 nM, GST-RAF1 RBD 9 nM, values given in μM, read-out: KRASG12C RAF Disruption Assay (IC50)
# Description: This is a functional assay that measures activity of compounds against […]., the active form of KRAS G12C. Recombinant GMPPNP-loaded KRAS G12C (5 nM) was treated with compound at room temperature for 20 minutes in assay buffer (50 mM Tris pH 7.5, 100 mM NaCl, 1 mM MgCl2, 1 mM DTT, 100 μg/ml BSA). Recombinant GST-RAF1 RBD (9 nM) was added, and the reaction mixture was incubated for 20 minutes. SA-Tb (0.25 nM) was added, and the reaction mixture was incubated for 3 hours. HTRF signal was measured (PerkinElmer Envision), the signal ratio (λem 520/λem 495) was calculated, and IC50 values were calculated from the dose-response curve.
# Recombinant GMPPNP-loaded KRAS G12C (KRAS-G12C(ON), active form), sequence (P01116 1-188 isoform P01116-2 G12C): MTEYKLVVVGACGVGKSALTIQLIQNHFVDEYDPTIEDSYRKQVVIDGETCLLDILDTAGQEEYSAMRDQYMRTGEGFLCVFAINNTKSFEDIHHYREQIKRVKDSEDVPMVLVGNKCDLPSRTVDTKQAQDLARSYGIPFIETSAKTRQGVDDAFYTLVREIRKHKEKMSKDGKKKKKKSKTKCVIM
row,IC50,SMILES
1,93 µM,"O=C(/C(F)=C/c1nccs1)N1[C@@H]2CC[C@H]1CN(c1nc(OC[C@@]34CCCN3C[C@H](F)C4)nc3c(F)c(-c4cccc5cccc(Cl)c45)ccc13)C2 [Example 10, (Z)-1-((1R,5S)-3-(7-(8-chloronaphthalen-1-yl)-8-fluoro-2-(((2R,7aS)-2-fluorotetrahydro-1H-pyrrolizin-7a(5H)-yl)methoxy)quinazolin-4-yl)-3,8-diazabicyclo[3.2.1]octan-8-yl)-2-fluoro-3-(thiazol-2-yl)prop-2-en-1-one]"
2,47.4 µM,"Cc1cc(N)nc(-c2c(Cl)cc3c(N4CC5CN(C(=O)/C(F)=C/c6nccs6)C5C4)nc(OC[C@]45CCCN4C[C@H](F)C5)nc3c2F)c1C(F)(F)F (single isomer, unassigned) [Example 15, Isomer 2]"
3,14.1 µM,"Cc1cc(N)nc(-c2c(Cl)cc3c(N4CCC5C4CCN5C(=O)/C(F)=C/c4nccs4)nc(OC[C@]45CCCN4C[C@H](F)C5)nc3c2F)c1C(F)(F)F (single isomer, unassigned) [Example 25, Isomer 1]"
4,21.3 µM,"C#Cc1c(F)ccc2cc(O)cc(-c3ccc4c(N5C[C@H]6CC[C@@H](C5)N6C(=O)/C(F)=C/c5ncccn5)nc(OC[C@@H]5CCCN5C)nc4c3F)c12 [Example 30, (Z)-1-((1R,5S)-3-(7-(8-ethynyl-7-fluoro-3-hydroxynaphthalen-1-yl)-8-fluoro-2-(((S)-1-methylpyrrolidin-2-yl)methoxy)quinazolin-4-yl)-3,8-diazabicyclo[3.2.1]octan-8-yl)-2-fluoro-3-(pyrimidin-2-yl)prop-2-en-1-one]"
5,9.6 µM,"CN1CCC[C@H]1COc1nc(N2C[C@H]3CC[C@@H](C2)N3C(=O)/C(F)=C/c2ccccn2)c2cc(Cl)c(-c3cc(O)cc4ccccc34)c(F)c2n1 [Example 8, (Z)-1-((1R,5S)-3-(6-chloro-8-fluoro-7-(3-hydroxynaphthalen-1-yl)-2-(((S)-1-methylpyrrolidin-2-yl)methoxy)quinazolin-4-yl)-3,8-diazabicyclo[3.2.1]octan-8-yl)-2-fluoro-3-(pyridin-2-yl)prop-2-en-1-one]"

# Same assay, conditions: GMPPNP-loaded KRAS G12C 5 nM, GST-RAF1 RBD 9 nM, values in nM, read-out: KRASG12C RAF Disruption Assay (IC50)
row,IC50,SMILES
1,2.4 µM,"CCc1cccc2cccc(-c3ccc4c(N5CCN(C(=O)/C(F)=C/c6cnccn6)[C@@H](CC#N)C5)nc(OC[C@@H]5CCCN5C)nc4c3F)c12 [Example 58, 2-((S)-4-(7-(8-ethylnaphthalen-1-yl)-8-fluoro-2-(((S)-1-methylpyrrolidin-2-yl)methoxy)quinazolin-4-yl)-1-((Z)-2-fluoro-3-(pyrazin-2-yl)acryloyl)piperazin-2-yl)acetonitrile]"
2,0.076 µM,"CN1CCC[C@H]1COc1nc(N2CCN(C(=O)/C(F)=C/c3nccs3)[C@@H](CC#N)C2)c2ccc(-c3cccc4cccc(Cl)c34)c(F)c2n1 [Example 33, 2-((S)-1-((Z)-2-fluoro-3-(thiazol-2-yl)acryloyl)-4-(8-fluoro-7-(8-chloronaphthalen-1-yl)-2-(((S)-1-methylpyrrolidin-2-yl)methoxy)quinazolin-4-yl)piperazin-2-yl)acetonitrile]"
3,4.7 µM,"CN1CCC[C@H]1COc1nc(N2CCN(C(=O)/C(F)=C/c3ncccn3)[C@@H](CC#N)C2)c2ccc(-c3cc(Cl)ccc3OC(F)(F)F)c(F)c2n1 [Example 67, 2-((S)-4-(7-(5-chloro-2-(trifluoromethoxy)phenyl)-8-fluoro-2-(((S)-1-methylpyrrolidin-2-yl)methoxy)quinazolin-4-yl)-1-((Z)-2-fluoro-3-(pyrimidin-2-yl)acryloyl)piperazin-2-yl)acetonitrile]"
4,1.6 µM,"CN1CCC[C@H]1COc1nc(N2CCN(C(=O)/C(F)=C/c3ccccn3)[C@@H](CC#N)C2)c2ccc(-c3cccc4cccc(C#N)c34)c(F)c2n1 [Example 79, 8-(4-((S)-3-(cyanomethyl)-4-((Z)-2-fluoro-3-(pyridin-2-yl)acryloyl)piperazin-1-yl)-8-fluoro-2-(((S)-1-methylpyrrolidin-2-yl)methoxy)quinazolin-7-yl)-1-naphthonitrile]"
5,0.38 µM,"C#Cc1cccc2cccc(-c3ccc4c(N5CCN(C(=O)/C(F)=C/c6nccs6)C[C@@H]5C)nc(OC[C@@]56CCCN5C[C@H](F)C6)nc4c3F)c12 [Example 89, (Z)-1-((S)-4-(7-(8-ethynylnaphthalen-1-yl)-8-fluoro-2-(((2R,7aS)-2-fluorotetrahydro-1H-pyrrolizin-7a(5H)-yl)methoxy)quinazolin-4-yl)-3-methylpiperazin-1-yl)-2-fluoro-3-(thiazol-2-yl)prop-2-en-1-one]"
6,1.5 µM,"COCCCN1CCC(Oc2nc(N3CCN(C(=O)/C(F)=C/c4nccs4)[C@@H](CC#N)C3)c3ccc(-c4cccc5cccc(Cl)c45)c(F)c3n2)CC1 [Example 74, (S,Z)-2-(4-(7-(8-chloronaphthalen-1-yl)-8-fluoro-2-((1-(3-methoxypropyl)piperidin-4-yl)oxy)quinazolin-4-yl)-1-(2-fluoro-3-(thiazol-2-yl)acryloyl)piperazin-2-yl)acetonitrile]"
7,0.025 µM,"Cc1cccc(/C=C(\F)C(=O)N2CCN(c3nc(OC[C@@H]4CCCN4C)nc4c(F)c(-c5cccc6cccc(Cl)c56)ccc34)C[C@@H]2CC#N)n1 [Example 36, 2-((S)-1-((Z)-2-fluoro-3-(6-methylpyridin-2-yl)acryloyl)-4-(8-fluoro-7-(8-chloronaphthalen-1-yl)-2-(((S)-1-methylpyrrolidin-2-yl)methoxy)quinazolin-4-yl)piperazin-2-yl)acetonitrile]"
8,0.27 µM,"CN1CCC[C@H]1COc1nc(N2CCN(C(=O)/C(F)=C/c3nccs3)[C@@H](CC#N)C2)c2ccc(-c3c(O)cccc3F)c(F)c2n1 [Example 56, 2-((2S)-1-((Z)-2-fluoro-3-(thiazol-2-yl)acryloyl)-4-(8-fluoro-7-(2-fluoro-6-hydroxyphenyl)-2-(((S)-1-methylpyrrolidin-2-yl)methoxy)quinazolin-4-yl)piperazin-2-yl)acetonitrile]"
9,0.05 µM,"Cc1ccc2[nH]ncc2c1-c1ccc2c(N3CCN(C(=O)/C(F)=C/c4ccccn4)[C@@H](CC#N)C3)nc(OC[C@@]34CCCN3C[C@H](F)C4)nc2c1F [Example 76, 2-((2S)-4-(8-fluoro-2-(((2R,7aS)-2-fluorotetrahydro-1H-pyrrolizin-7a(5H)-yl)methoxy)-7-(5-methyl-1H-indazol-4-yl)quinazolin-4-yl)-1-((Z)-2-fluoro-3-(pyridin-2-yl)acryloyl)piperazin-2-yl)acetonitrile]"
10,0.02 µM,"C#Cc1cccc2cccc(-c3ccc4c(N(C)[C@@H]5CCN(C(=O)/C(F)=C/c6ccccn6)C5)nc(OC[C@@]56CCCN5C[C@H](F)C6)nc4c3F)c12 [Example 81, (Z)-1-((R)-3-((7-(8-ethynylnaphthalen-1-yl)-8-fluoro-2-(((2R,7aS)-2-fluorotetrahydro-1H-pyrrolizin-7a(5H)-yl)methoxy)quinazolin-4-yl)(methyl)amino)pyrrolidin-1-yl)-2-fluoro-3-(pyridin-2-yl)prop-2-en-1-one]"
11,0.098 µM,"Cc1cc2[nH]ncc2c(-c2ccc3c(N(C)[C@@H]4CCN(C(=O)/C(F)=C/c5nccs5)C4)nc(OC[C@@]45CCCN4C[C@H](F)C5)nc3c2F)c1Cl [Example 84, (Z)-1-((3R)-3-((7-(5-chloro-6-methyl-1H-indazol-4-yl)-8-fluoro-2-(((2R,7aS)-2-fluorotetrahydro-1H-pyrrolizin-7a(5H)-yl)methoxy)quinazolin-4-yl)(methyl)amino)pyrrolidin-1-yl)-2-fluoro-3-(thiazol-2-yl)prop-2-en-1-one]"
